Test results reported in publication PMC12750218 (ACS Omega, 2025).

How the values were obtained:
rat plasma proteins = system: rat plasma proteins; parameters: method as in public assessment report of Otezla (CHMP, 2014); settings: 0.25 to 2.5 μg/mL, ref public assessment report of Otezla (CHMP, 2014); cited from earlier work
mouse plasma proteins = system: mouse plasma proteins; parameters: method as in public assessment report of Otezla (CHMP, 2014); settings: 0.25 to 2.5 μg/mL, ref public assessment report of Otezla (CHMP, 2014); cited from earlier work
human plasma proteins = system: human plasma proteins; parameters: method as in public assessment report of Otezla (CHMP, 2014); settings: 0.25 to 2.5 μg/mL, ref public assessment report of Otezla (CHMP, 2014); cited from earlier work
monkey plasma proteins = system: monkey plasma proteins; parameters: method as in public assessment report of Otezla (CHMP, 2014); settings: 0.25 to 2.5 μg/mL, ref public assessment report of Otezla (CHMP, 2014); cited from earlier work
rabbit plasma proteins = system: rabbit plasma proteins; parameters: method as in public assessment report of Otezla (CHMP, 2014); settings: 0.25 to 2.5 μg/mL, ref public assessment report of Otezla (CHMP, 2014); cited from earlier work
[1] = system: human α1-acid glycoprotein (AGP); experiment: Isothermal titration calorimetry of AGP with APR enantiomers; type: binding; settings: ITC, aqueous 5% DMSO, 25 °C; for Standard entropy (ΔS) of binding: calculated from ΔG=ΔH−TΔS; for Standard Gibbs free energy (ΔG) of binding: calculated from −RTlnK
Procedure: The working cell contained 1427.5 μL of AGP solution, which was titrated with 5 μL aliquots of the APR solution from the syringe, up to a total volume of 275 μL. The reference cell was filled with aqueous 5% DMSO. Each injection lasted 10 s, with a 1000 s interval between injections. The stirring speed was maintained at 307 rpm.
The resulting isotherm was next fitted with the nonlinear multiparameter regression method (Origin 7.0 MicroCal) using the One Set of Sites model, which assumes that a receptor (macromolecule) has a single class of multiple independent binding sites for a ligand. In this model, each site has the same affinity and thermodynamics for the ligand, and the binding of one ligand molecule to a site is independent of the binding events at other sites. […] The standard Gibbs free energy of binding ΔG and standard entropy of binding ΔS can be next calculated using the basic thermodynamic relationship ΔG=ΔH−TΔS=−RTln⁡K where T is temperature and R is the gas constant.

[2] = system: human α1-acid glycoprotein (AGP); experiment: HPLC on chiral AGP column (immobilized protein): retention factors and estimated bound percentage; type: binding; settings: for Bound percentage (b%): from ln k extrapolated to zero organic modifier, b%=100×k/(1+k); for retention factor (k): chiral AGP column, 2-propanol modifier
Procedure: In this study, AGP was used as the chiral selector. […]
HPLC columns with immobilized proteins can also be used to estimate the percentage of the drug bound to the protein. […] Extrapolating this relationship to a zero organic modifier approximates physiological conditions. The intercept of the regression lines was used to calculate protein binding percentages based on eq .
LC-UV analysis was conducted on an Agilent 1100 HPLC system that included a quaternary pump, an autosampler, a column compartment, and a DAD detector (Agilent Technologies, Waldbronn, Germany). Data analysis was performed with ChemStation software (version: B04.03-SP2). UV detection was set at 230 nm. Stock solutions were prepared in methanol at a concentration of 1 mg/mL (2.17 mM), and further dilutions were made by using deionized water. Samples were prepared to contain 0.1 mg/mL (0.217 mM) R-APR and 0.2 mg/mL (0.434 mM) S-APR, with each analysis performed using a 5 μL injection volume. […] Chromatographic data were evaluated according to standard calculation methods. The retention factor (k) for each enantiomer was determined using the following equation: k=(tr−t0)/t0 1 where tr denotes the retention time of the target enantiomer and t0 represents the column dead time.
Additionally, the retention factor was used to estimate the percentage of protein-bound analytes according to the following formula: b%=100×k/(1+k) 2 Three parallel measurements were performed for each case.

[3] = system: human α1-acid glycoprotein (AGP); experiment: Ultracentrifugation, free APR in supernatant by HPLC-UV; settings: isolated human α1-acid glycoprotein (AGP) in PBS, 5 μM APR, 5-15 μM AGP, PBS pH 7.4, 20 °C, 1:1 stoichiometry, K in L mol^–1, read-out: binding (stability) constant log K (converted)
Procedure: The interaction of S-APR and R-APR with AGP was also examined with ultracentrifugation, where increasing protein levels (final concentrations: 0, 5, 10, and 15 μM) were added to a standard amount of the ligand (5 μM) in PBS (pH 7.4). These samples (600 μL) were centrifuged for 16 h at 170,000g and 20 °C employing an Optima MAX-XP ultracentrifuge (Beckman Coulter, Brea, CA, USA). Using these experimental conditions, the protein is slowly sedimented without the disruption of ligand–protein interactions. − , Thereafter, the unbound free fraction of APR was directly quantified in the protein-free supernatants by the HPLC-UV method (see the next paragraph). Binding (association) constants (K; unit: L mol^–1) of APR–AGP complexes were calculated assuming a 1:1 stoichiometry of complex formation: , K=([APR−AGP])/([APR]×[AGP]) 3 where [APR] is the molar concentration of the unbound free ligand, [AGP] is the molar concentration of the unbound free protein, and [APR–AGP] indicates the molar concentration of the ligand–protein complex.
The APR concentration after centrifugation was measured by a validated HPLC-UV method using an XTERRA RP18 column (5 μm, 4.6 × 100 mm), maintained at 40 °C. Isocratic elution was applied using acetonitrile and water containing 0.5% formic acid (60:40, v/v) as the mobile phase. […] The concentration was determined by using the external standard method. […]

[4] = system: human serum albumin (HSA); parameters: method as in number not printed (authors' recent work, Dombi et al., 2023); settings: binding to HSA; ref number not printed (authors' recent work, Dombi et al., 2023); cited from earlier work
[5] = 25 °C, sodium phosphate buffer 10 mM pH 7.0, 95% in eluent
[6] = ammonium acetate buffer 10 mM pH 7.0, 85% in eluent
[7] = ammonium acetate buffer 10 mM pH 7.0, 90% in eluent
[8] = ammonium acetate buffer 10 mM pH 7.0, 92.5% in eluent
[9] = ammonium acetate buffer 10 mM pH 7.0, 95% in eluent
[10] = ammonium bicarbonate buffer 10 mM pH 7.0, 85% in eluent
[11] = ammonium bicarbonate buffer 10 mM pH 7.0, 90% in eluent
[12] = ammonium bicarbonate buffer 10 mM pH 7.0, 92.5% in eluent
[13] = ammonium bicarbonate buffer 10 mM pH 7.0, 95% in eluent
[14] = sodium phosphate buffer 10 mM pH 7.0, 85% in eluent
[15] = sodium phosphate buffer 10 mM pH 7.0, 90% in eluent
[16] = sodium phosphate buffer 10 mM pH 7.0, 92.5% in eluent

| SMILES | Standard enthalpy (ΔH) of binding [1] | Standard entropy (ΔS) of binding [1] | Standard Gibbs free energy (ΔG) of binding [1] | Bound percentage (b%) ([2]; ammonium acetate buffer) | Bound percentage (b%) ([2]; ammonium bicarbonate buffer) | retention factor (k) [2, 5] | retention factor (k) [2, 6] | retention factor (k) [2, 7] | retention factor (k) [2, 8] | retention factor (k) [2, 9] | retention factor (k) [2, 10] | retention factor (k) [2, 11] | retention factor (k) [2, 12] | retention factor (k) [2, 13] | retention factor (k) [2, 14] | retention factor (k) [2, 15] | retention factor (k) [2, 16] | Bound percentage (b%) ([2]; sodium phosphate buffer) | Kd at 16 h, 5 µM [3] | Stability constant (log K), HSA [4] | further results |
| --- | --- | --- | --- | --- | --- | --- | --- | --- | --- | --- | --- | --- | --- | --- | --- | --- | --- | --- | --- | --- | --- |
| CCOc1cc([C@@H](CS(C)(=O)=O)N2C(=O)c3cccc(NC(C)=O)c3C2=O)ccc1OC [APR, Apremilast] | – | – | – | – | – | – | – | – | – | – | – | – | – | – | – | – | – | – | – | – | average percentage bound to plasma proteins (rat plasma proteins): 90.6%; average percentage bound to plasma proteins (mouse plasma proteins): 88.6%; average percentage bound to plasma proteins (human plasma proteins): 68.3%; average percentage bound to plasma proteins (monkey plasma proteins): 84.3%; average percentage bound to plasma proteins (rabbit plasma proteins): 80.9% |
| CCOc1cc([C@H](CS(C)(=O)=O)N2C(=O)c3cccc(NC(C)=O)c3C2=O)ccc1OC [R-APR, apremilast] | –3.40 ± 0.26 kcal mol^–1 | 13.7 ± 1.5 cal K^–1 mol^–1 | –7.48 ± 0.18 kcal mol^–1 | 98.37% | 99.19% | 3.99 ± 0.02 | 0.33 ± 0.01 | 0.90 ± 0.01 | 1.51 ± 0.03 | 3.29 ± 0.02 | 0.32 ± 0.01 | 0.94 ± 0.01 | 1.62 ± 0.01 | 3.59 ± 0.02 | 0.34 ± 0.01 | 0.98 ± 0.01 | 1.69 ± 0.01 | 99.31% | 2290 nM | 3.81 ± 0.05 | – |
| CCOc1cc([C@@H](CS(C)(=O)=O)N2C(=O)c3cccc(NC(C)=O)c3C2=O)ccc1OC [S-APR, apremilast] | –4.80 ± 0.27 kcal mol^–1 | 9.3 ± 1.3 cal K^–1 mol^–1 | –7.57 ± 0.12 kcal mol^–1 | 99.01% | 99.54% | 5.05 ± 0.03 | 0.33 ± 0.01 | 0.90 ± 0.01 | 1.72 ± 0.03 | 4.07 ± 0.02 | 0.32 ± 0.01 | 0.94 ± 0.01 | 1.89 ± 0.01 | 4.44 ± 0.02 | 0.34 ± 0.01 | 0.98 ± 0.01 | 2.00 ± 0.01 | 99.63% | 1700 nM | 4.02 ± 0.08 | – |
